In the OPERA property sets (Mansouri et al. 2018):
One block for each compound: values may come before it.

SMILES: NNC(=O)Nc1ccccc1
- logP: 0.16

SMILES: NNC(=O)Nc1ccc([N+](=O)[O-])cc1
- logP: -0.18

SMILES: Cc1ccc(NC(=O)NN)cc1
- logP: 0.69

SMILES: COc1ccc(NC(=O)NN)cc1
- logP: 0.17

SMILES: NNC(=O)Nc1ccc(Cl)cc1
- logP: 0.87

SMILES: NNC(=O)Nc1cccc(C(=O)O)c1
- logP: -0.16

More lines, now with the values ahead:

- logP: -0.47
SMILES: NNC(=O)Nc1ccccc1[N+](=O)[O-]

- logP: 0.68
SMILES: Cc1cccc(NC(=O)NN)c1

- logP: 0.33
SMILES: NNC(=O)Nc1ccccc1O

- logP: -0.49
SMILES: NNC(=O)Nc1ccccc1C(=O)O

- logP: -0.15
SMILES: COc1ccccc1NC(=O)NN

- logP: -0.21
SMILES: NNC(=O)Nc1ccc(C(=O)O)cc1
